Reference: patent publication US20050228016A1, “TETRAHYDROQUINOLINES FOR MODULATING THE EXPRESSION OF EXOGENOUS GENES VIA AN ECDYSONE RECEPTOR COMPLEX” (priority 2002, published 2005)

Each molecule was assayed against T1, Gal4DBD/AaEcR (DEF) (Aedes aegypti, UniProt P49880) (assay: cell-based). Details: 33 μM; 3T3 cells; 48 h; average of two wells.
T1 construct: The wildtype D, E, and F domains from mosquito Aedes aegypti EcR; expressed in transfected cells; host or cells: 3T3 cells
Type: cell-based
Outline: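 Single-dose ligand testing at 33 μM, applied in serum medium after 4 h transfection. Host was 3T3 cells carrying Gal4DBD/AaEcR (DEF) plus a 5× GAL4 RE-driven firefly luciferase reporter (pFRLuc).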

T1 sequence (P28704 286-520 A311G/G315S/G445S/I449V): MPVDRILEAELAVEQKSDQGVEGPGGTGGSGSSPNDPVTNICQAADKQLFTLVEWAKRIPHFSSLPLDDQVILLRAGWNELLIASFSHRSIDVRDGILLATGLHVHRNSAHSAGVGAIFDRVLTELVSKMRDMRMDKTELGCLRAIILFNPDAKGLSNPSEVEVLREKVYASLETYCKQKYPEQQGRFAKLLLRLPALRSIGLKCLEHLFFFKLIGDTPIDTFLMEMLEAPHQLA
T1 sequence (P49880 405-776): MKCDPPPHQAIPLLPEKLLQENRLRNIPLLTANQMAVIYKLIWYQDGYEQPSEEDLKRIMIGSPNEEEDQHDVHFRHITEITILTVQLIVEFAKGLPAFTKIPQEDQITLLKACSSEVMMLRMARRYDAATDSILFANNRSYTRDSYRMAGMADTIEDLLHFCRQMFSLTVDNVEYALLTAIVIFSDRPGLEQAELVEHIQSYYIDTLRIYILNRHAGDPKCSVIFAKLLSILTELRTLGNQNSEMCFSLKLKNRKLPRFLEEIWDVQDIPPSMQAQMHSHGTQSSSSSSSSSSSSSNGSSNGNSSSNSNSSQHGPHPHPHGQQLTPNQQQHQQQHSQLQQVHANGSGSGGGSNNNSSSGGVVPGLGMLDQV

Q: Which “Fold Induction Average, AA_3T3V1 Assay 33 μM” value does the source give for `COc1cccc(C(=O)N2c3ccc(C)cc3C(Nc3ccc(C)cc3)CC2C)c1C` (centres unmarked) [Compound I-54] here?
A: The value was 35 fold.

Q: Which “Fold Induction Average, AA_3T3V1 Assay 33 μM” value does the source give for `CC1CC(Nc2ccc(F)cc2)c2cc(F)ccc2N1C(=O)c1ccccc1F` (centres unmarked) [Compound I-55] here?
A: Its value is 78 fold.

Q: With `Cc1ccccc1C(=O)N1c2ccc(F)cc2C(Nc2ccc(F)cc2)CC1C` (centres unmarked) [Compound I-56] as the molecule, how does the “Fold Induction Average, AA_3T3V1 Assay 33 μM” value read?
A: The value was 158 fold.

Q: Which “Fold Induction Average, AA_3T3V1 Assay 33 μM” value does the source give for `COc1ccccc1C(=O)N1c2ccc(F)cc2C(Nc2ccc(F)cc2)CC1C` (centres unmarked) [Compound I-57] here?
A: Its value is 4 fold.

Q: Which “Fold Induction Average, AA_3T3V1 Assay 33 μM” value does the source give for `CC1CC(Nc2ccccc2)c2ccccc2N1C(=O)c1ccc(Cl)cc1` (centres unmarked) [Compound I-61] here?
A: The value was 216 fold.

Q: With `CCc1ccc(C(=O)N2c3ccccc3C(Nc3ccccc3)CC2C)cc1` (centres unmarked) [Compound I-62] as the molecule, how does the “Fold Induction Average, AA_3T3V1 Assay 33 μM” value read?
A: Its value is 744 fold.

Q: With `Cc1ccc(NC2CC(C)N(C(=O)c3ccc(Cl)cc3)c3ccc(C)cc32)cc1` (centres unmarked) [Compound I-63] as the molecule, how does the “Fold Induction Average, AA_3T3V1 Assay 33 μM” value read?
A: The value was 812 fold.

Q: With `COc1ccc(C(=O)N2c3ccccc3C(Nc3ccccc3)CC2C)cc1` (centres unmarked) [Compound I-95] as the molecule, how does the “Fold Induction Average, AA_3T3V1 Assay 33 μM” value read?
A: Its value is 11 fold.

Q: With `Cc1ccc(C(=O)N2c3ccccc3C(Nc3ccccc3)CC2C)cc1` (centres unmarked) [Compound I-96] as the molecule, how does the “Fold Induction Average, AA_3T3V1 Assay 33 μM” value read?
A: The value was 121 fold.

Q: Which “Fold Induction Average, AA_3T3V1 Assay 33 μM” value does the source give for `CC1CC(Nc2ccccc2)c2ccccc2N1C(=O)c1ccccc1` (centres unmarked) [Compound I-97] here?
A: The value was 37 fold.

Q: `COc1ccc(C(=O)N2c3ccc(F)cc3C(Nc3ccc(F)cc3)CC2C)cc1` (centres unmarked) [Compound I-101] was tested. Which “Fold Induction Average, AA_3T3V1 Assay 33 μM” value did it give?
A: Its value is 561 fold.

Q: How did the “Fold Induction Average, AA_3T3V1 Assay 33 μM” value turn out when `Cc1ccc(C(=O)N2c3ccc(F)cc3C(Nc3ccc(F)cc3)CC2C)cc1` (centres unmarked) [Compound I-102] was run?
A: The value was 601 fold.

Q: With `CC1CC(Nc2ccccc2)c2ccccc2N1C(=O)c1ccc(Cl)nc1` (centres unmarked) [Compound I-103] as the molecule, how does the “Fold Induction Average, AA_3T3V1 Assay 33 μM” value read?
A: The value was 341 fold.

Q: For `CC1CC(Nc2ccccc2)c2ccccc2N1C(=O)c1ccc(Cl)c(F)c1` (centres unmarked) [Compound I-105], which “Fold Induction Average, AA_3T3V1 Assay 33 μM” value is on record?
A: Its value is 369 fold.

Q: Which “Fold Induction Average, AA_3T3V1 Assay 33 μM” value does the source give for `CC1CC(Nc2ccccc2)c2ccccc2N1C(=O)c1ccnc(Cl)c1` (centres unmarked) [Compound I-106] here?
A: The value was 1053 fold.

Q: How did the “Fold Induction Average, AA_3T3V1 Assay 33 μM” value turn out when `CCc1c(OC)cccc1C(=O)N1c2ccccc2C(Nc2ccccc2)CC1C` (centres unmarked) [Compound I-107] was run?
A: The value was 636 fold.

Q: For `Cc1ccc(NC2CC(C)N(C(=O)c3ccno3)c3ccc(C)cc32)cc1` (centres unmarked) [Compound I-109], which “Fold Induction Average, AA_3T3V1 Assay 33 μM” value is on record?
A: The value was 33 fold.

Q: How did the “Fold Induction Average, AA_3T3V1 Assay 33 μM” value turn out when `Cc1ccc(NC2CC(C)N(C(=O)c3ccc(Cl)c(F)c3)c3ccc(C)cc32)cc1` (centres unmarked) [Compound I-110] was run?
A: Its value is 782 fold.

Q: For `Cc1ccc(NC2CC(C)N(C(=O)c3ccnc(Cl)c3)c3ccc(C)cc32)cc1` (centres unmarked) [Compound I-111], which “Fold Induction Average, AA_3T3V1 Assay 33 μM” value is on record?
A: The value was 527 fold.

Q: For `CCCC(=O)N1c2ccccc2C(N(C(=O)c2ccccc2)c2ccc(F)cc2)CC1C` (centres unmarked) [Compound I-126], which “Fold Induction Average, AA_3T3V1 Assay 33 μM” value is on record?
A: The value was 1 fold.

Q: For `COc1cccc(NC2CC(C)N(C(=O)c3ccccc3)c3ccccc32)c1` (centres unmarked) [Compound I-137], which “Fold Induction Average, AA_3T3V1 Assay 33 μM” value is on record?
A: Its value is 64 fold.

Q: Which “Fold Induction Average, AA_3T3V1 Assay 33 μM” value does the source give for `COc1cccc(C(=O)N(c2ccccc2)C2CC(C)N(C(C)=O)c3ccccc32)c1` (centres unmarked) [Compound I-142] here?
A: Its value is 1 fold.

Each molecule was assayed against T2, Bombyx mori EcR (VP16-BmEcR, CVBE) (Bombyx mori, UniProt P49881) (assay: Z3 assay (HEK-293 clone Z3 with CVBE and 6x EcRE LacZ, β-galactosidase reporter)). Details: 48 h, average of two wells.
T2 construct: expressed in transfected cells
T2 sequence (P49881 86-606): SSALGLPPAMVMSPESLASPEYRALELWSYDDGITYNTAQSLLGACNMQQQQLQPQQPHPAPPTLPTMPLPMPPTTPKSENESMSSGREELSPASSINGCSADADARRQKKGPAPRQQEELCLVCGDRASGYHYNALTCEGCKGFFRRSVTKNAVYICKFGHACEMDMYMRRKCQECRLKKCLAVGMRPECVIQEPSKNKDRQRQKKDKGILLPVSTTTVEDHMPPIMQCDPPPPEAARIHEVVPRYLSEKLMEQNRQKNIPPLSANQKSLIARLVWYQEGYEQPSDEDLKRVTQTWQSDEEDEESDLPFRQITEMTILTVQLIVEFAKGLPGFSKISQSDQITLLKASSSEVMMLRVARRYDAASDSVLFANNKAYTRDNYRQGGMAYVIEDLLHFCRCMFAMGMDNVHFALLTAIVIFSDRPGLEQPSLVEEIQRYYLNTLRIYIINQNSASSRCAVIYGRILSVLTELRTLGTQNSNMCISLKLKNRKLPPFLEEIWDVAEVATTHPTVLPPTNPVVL
Type: cell-based
From the text: Dr. F. Gage provided a population of stably transformed cells containing CVBE and 6× EcRE as described in (Suhr et. al. 1998). Human 293 kidney cells, also referred to as HEK-293 cells, were sequentially infected with retroviral vectors encoding first the switch construct CVBE, and subsequently the reporter construct 6× EcRE Lac Z. The switch construct contained the coding sequence for amino acids 26-546 from Bombyx nori EcR (BE) (Iatrou) inserted in frame and downstream of the VP16 transactivation domain (VBE). A synthetic ATG start codon was placed under the control of cytomegalovirus (CVBE) immediate early promoter and flanked by long terminal repeats (LTR). The reporter-construct contained six copies of the ecdysone response element (EcRE) binding site placed upstream of LacZ and flanked on both sides with LTR sequences (6× EcRE).
Dilution cloning was used to isolate individual clones. Clones were selected using 450 μg/ml G418 and 100 ng/ml puromycin. Individual clones were evaluated based on their response in the presence and absence of test ligands.
Human 293 kidney cells stably transformed with CVBE and 6× EcRE lack were maintained in Minimum Essential Medium (Mediates, 10-010-CV) containing 10%.FBS (Life Technologies, 26140-087),[…] G418 (Mediates, 30-234-CR), and […] (Sigma, P-7255), at 37° C. in an atmosphere containing 5% CO2 and were subculture when they reached 75% confluence.
Z3 cells were seeded into 96-well tissue culture plates at a concentration of 2.5×10^3 cells per well and incubated at 37° C. in 5% CO2 for twenty-four hours. Stock solutions of ligands were prepared in DMSO. Ligand stock solutions were diluted 100.fold in media and 50 μL of this diluted ligand solution (33 μM) was added to cells.
Reporter gene expression was evaluated 48 hours after treatment of cells, β-galactosidase activity was measured using Gal Screen™ bioluminescent reporter gene assay system from Tropix (GSY1000).
Flanking both constructs are long terminal repeats, G418 and puromycin are selectable markers, CMV is the cytomegalovirus promoter, VBE is coding sequence for amino acids 26-546 from Bombyx mori EcR inserted downstream of the VP16 transactivation domain, 6× EcRE is six copies of the ecdysone response element, lacZ encodes for the reporter enzyme β-galactosidase.

Q: With `COc1cccc(C(=O)N2c3ccc(C)cc3C(Nc3ccc(C)cc3)CC2C)c1C` (centres unmarked) [Compound I-54] as the molecule, how does the “Fold Induction Average, Z3V1 Assay 33 μM” value read?
A: Its value is 7 fold.

Q: With `CC1CC(Nc2ccc(F)cc2)c2cc(F)ccc2N1C(=O)c1ccccc1F` (centres unmarked) [Compound I-55] as the molecule, how does the “Fold Induction Average, Z3V1 Assay 33 μM” value read?
A: Its value is 10 fold.

Q: How did the “Fold Induction Average, Z3V1 Assay 33 μM” value turn out when `Cc1ccccc1C(=O)N1c2ccc(F)cc2C(Nc2ccc(F)cc2)CC1C` (centres unmarked) [Compound I-56] was run?
A: The value was 8 fold.

Q: With `COc1ccccc1C(=O)N1c2ccc(F)cc2C(Nc2ccc(F)cc2)CC1C` (centres unmarked) [Compound I-57] as the molecule, how does the “Fold Induction Average, Z3V1 Assay 33 μM” value read?
A: Its value is 1 fold.

Q: Which “Fold Induction Average, Z3V1 Assay 33 μM” value does the source give for `CC1CC(Nc2ccccc2)c2ccccc2N1C(=O)c1ccc(Cl)cc1` (centres unmarked) [Compound I-61] here?
A: The value was 4 fold.

Q: For `CCc1ccc(C(=O)N2c3ccccc3C(Nc3ccccc3)CC2C)cc1` (centres unmarked) [Compound I-62], which “Fold Induction Average, Z3V1 Assay 33 μM” value is on record?
A: Its value is 43 fold.

Q: Which “Fold Induction Average, Z3V1 Assay 33 μM” value does the source give for `Cc1ccc(NC2CC(C)N(C(=O)c3ccc(Cl)cc3)c3ccc(C)cc32)cc1` (centres unmarked) [Compound I-63] here?
A: Its value is 1 fold.

Q: How did the “Fold Induction Average, Z3V1 Assay 33 μM” value turn out when `COc1ccc(C(=O)N2c3ccccc3C(Nc3ccccc3)CC2C)cc1` (centres unmarked) [Compound I-95] was run?
A: The value was 1 fold.

Q: With `Cc1ccc(C(=O)N2c3ccccc3C(Nc3ccccc3)CC2C)cc1` (centres unmarked) [Compound I-96] as the molecule, how does the “Fold Induction Average, Z3V1 Assay 33 μM” value read?
A: The value was 1 fold.

Q: How did the “Fold Induction Average, Z3V1 Assay 33 μM” value turn out when `CC1CC(Nc2ccccc2)c2ccccc2N1C(=O)c1ccccc1` (centres unmarked) [Compound I-97] was run?
A: The value was 1 fold.

Q: `COc1ccc(C(=O)N2c3ccc(F)cc3C(Nc3ccc(F)cc3)CC2C)cc1` (centres unmarked) [Compound I-101] was tested. Which “Fold Induction Average, Z3V1 Assay 33 μM” value did it give?
A: The value was 2 fold.

Q: With `Cc1ccc(C(=O)N2c3ccc(F)cc3C(Nc3ccc(F)cc3)CC2C)cc1` (centres unmarked) [Compound I-102] as the molecule, how does the “Fold Induction Average, Z3V1 Assay 33 μM” value read?
A: The value was 3 fold.

Q: With `CC1CC(Nc2ccccc2)c2ccccc2N1C(=O)c1ccc(Cl)nc1` (centres unmarked) [Compound I-103] as the molecule, how does the “Fold Induction Average, Z3V1 Assay 33 μM” value read?
A: Its value is 4 fold.

Q: How did the “Fold Induction Average, Z3V1 Assay 33 μM” value turn out when `CC1CC(Nc2ccccc2)c2ccccc2N1C(=O)c1ccc(Cl)c(F)c1` (centres unmarked) [Compound I-105] was run?
A: Its value is 30 fold.

Q: With `CC1CC(Nc2ccccc2)c2ccccc2N1C(=O)c1ccnc(Cl)c1` (centres unmarked) [Compound I-106] as the molecule, how does the “Fold Induction Average, Z3V1 Assay 33 μM” value read?
A: Its value is 83 fold.

Q: With `CCc1c(OC)cccc1C(=O)N1c2ccccc2C(Nc2ccccc2)CC1C` (centres unmarked) [Compound I-107] as the molecule, how does the “Fold Induction Average, Z3V1 Assay 33 μM” value read?
A: Its value is 6 fold.

Q: With `Cc1ccc(NC2CC(C)N(C(=O)c3ccno3)c3ccc(C)cc32)cc1` (centres unmarked) [Compound I-109] as the molecule, how does the “Fold Induction Average, Z3V1 Assay 33 μM” value read?
A: Its value is 1 fold.

Q: For `Cc1ccc(NC2CC(C)N(C(=O)c3ccc(Cl)c(F)c3)c3ccc(C)cc32)cc1` (centres unmarked) [Compound I-110], which “Fold Induction Average, Z3V1 Assay 33 μM” value is on record?
A: Its value is 2 fold.

Q: For `Cc1ccc(NC2CC(C)N(C(=O)c3ccnc(Cl)c3)c3ccc(C)cc32)cc1` (centres unmarked) [Compound I-111], which “Fold Induction Average, Z3V1 Assay 33 μM” value is on record?
A: The value was 16 fold.

Q: Which “Fold Induction Average, Z3V1 Assay 33 μM” value does the source give for `CCCC(=O)N1c2ccccc2C(N(C(=O)c2ccccc2)c2ccc(F)cc2)CC1C` (centres unmarked) [Compound I-126] here?
A: Its value is 1 fold.

Q: How did the “Fold Induction Average, Z3V1 Assay 33 μM” value turn out when `COc1cccc(NC2CC(C)N(C(=O)c3ccccc3)c3ccccc32)c1` (centres unmarked) [Compound I-137] was run?
A: The value was 1 fold.

Q: For `COc1cccc(C(=O)N(c2ccccc2)C2CC(C)N(C(C)=O)c3ccccc32)c1` (centres unmarked) [Compound I-142], which “Fold Induction Average, Z3V1 Assay 33 μM” value is on record?
A: Its value is 1 fold.
